Drawing on patent publication US10005741B2, “Therapeutic compounds” (ARIZONA BOARD OF REGENTS ON BEHALF OF ARIZONA STATE …, priority 2014, dated 2018), this text covers melting point and EC50 for 11 compounds.

What is called melting point is the temperature of the solid-liquid transition. The term EC50 denotes the concentration that produces a half-maximal response. A lower EC50 goes with a more potent agent.

Tested on in one data set: not given
Assay: not given
Conditions: not given
`CCN(c1ncc(C(=O)O)cn1)c1cc2c(cc1C)C(C)(C)CCC2(C)C` [Compound A57, 2-(ethyl(3,5,5,8,8-pentamethyl-5,6,7,8-tetrahydronaphthalen-2-yl)amino)pyrimidine-5-carboxylic acid] yielded a melting point of 231.9 to 233.1 °C.
On the same count and under the same terms, next, `CCN(c1ccc2c(c1)C(C)(C)CCC2(C)C)c1cnc(C(=O)O)cn1` [Compound A58, 5-(ethyl(5,5,8,8-tetramethyl-5,6,7,8-tetrahydronaphthalen-2-yl)amino)pyrazine-2-carboxylic acid]: 213.1 to 214.4 °C; `CCN(c1cnc(C(=O)O)cn1)c1cc2c(cc1C)C(C)(C)CCC2(C)C` [Compound A59, 5-(ethyl(3,5,5,8,8-pentamethyl-5,6,7,8-tetrahydronaphthalen-2-yl)amino)pyrazine-2-carboxylic acid]: 203.6 to 205.1 °C; `CCN(c1ccc(C(=O)O)c(F)c1)c1cc2c(cc1C)C(C)(C)CCC2(C)C` [Compound A60, 4-(ethyl(3,5,5,8,8-pentamethyl-5,6,7,8-tetrahydronaphthalen-2-yl)amino)-2-fluorobenzoic acid]: 241.4 to 243.8 °C.
On the same count and under the same terms, under `CCN(c1ccc(C(=O)O)cc1)c1cc2c(cc1C)C(C)(C)CCC2(C)C` [Compound A61, 4-(ethyl(3,5,5,8,8-pentamethyl-5,6,7,8-tetrahydronaphthalen-2-yl)amino)benzoic acid] stands 252.4 to 256.8 °C; under `CCN(c1ccc(C(=O)O)c(F)c1)c1ccc2c(c1)C(C)(C)CCC2(C)C` [Compound A62, 4-(ethyl(5,5,8,8-tetramethyl-5,6,7,8-tetrahydronaphthalen-2-yl)amino)-2-fluorobenzoic acid], 252.4 to 256.8 °C; under `CCN(c1ccc(C(=O)O)cc1)c1ccc2c(c1)C(C)(C)CCC2(C)C` [Compound A63, 4-(ethyl(5,5,8,8-tetramethyl-5,6,7,8-tetrahydronaphthalen-2-yl)amino)benzoic acid], 247.8 to 250.6 °C.

A further data set has as its target T1, human RXR (Homo sapiens, UniProt P19793).
T1 construct: expressed in transfected cells; host or cells: HCT-116 cells
T1 sequence (P19793 1-462) 1: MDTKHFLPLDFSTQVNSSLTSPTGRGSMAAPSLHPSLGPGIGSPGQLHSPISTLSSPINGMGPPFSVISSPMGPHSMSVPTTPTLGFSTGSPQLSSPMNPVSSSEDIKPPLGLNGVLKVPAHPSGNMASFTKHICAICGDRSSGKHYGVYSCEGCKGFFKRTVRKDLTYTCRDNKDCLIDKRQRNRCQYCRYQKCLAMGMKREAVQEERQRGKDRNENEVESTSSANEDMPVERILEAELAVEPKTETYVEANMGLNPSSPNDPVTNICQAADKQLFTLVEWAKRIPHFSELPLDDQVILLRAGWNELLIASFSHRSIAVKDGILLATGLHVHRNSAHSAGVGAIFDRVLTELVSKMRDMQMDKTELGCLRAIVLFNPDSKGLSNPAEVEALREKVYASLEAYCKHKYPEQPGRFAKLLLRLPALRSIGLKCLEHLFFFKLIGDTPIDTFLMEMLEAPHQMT
T1 sequence (P19793 1-462) 2: T1 sequence (P19793 1-462) 1
Put plainly: Test A: RXR mammalian two-hybrid luciferase assay in transfected HCT-116 cells. The settings on record: RXR mammalian two-hybrid system, luciferase reporter, 24 hours treatment, dose-response 1x10^-9 to 0.3x10^-5 M. The format is cell-based. As for the experimental part: HCT-116 cells were plated overnight at 80,000 cells/well in a 24 well plate and maintained as described above. The cells were co-transfected using a human RXR binding domain (BD) vector, a human RXR activation domain (AD) vector, a luciferase reporter gene containing BD-binding sites and renilla control plasmid. Transfection was achieved via 2 μL/well of Express-IN transfection reagent which was allowed to incubate for 24 hours with the cells. […] The amount of rexinoid activity at each concentration was measured using the same luciferase assay described above, and EC50 values were derived from dose-response curves of ligand concentration versus normalized luciferase activity.
(Reporter assays use an easily measured gene product as a stand-in for the process of interest.)
With `Cc1cnc(/C=C/C(=O)O)cc1-c1cc2c(cc1C)C(C)(C)CCC2(C)C` [Compound A42], the EC50 came out at 3.7 nM.
On the same count and under the same terms, next, `Cc1cc2c(cc1-c1cncc(/C=C/C(=O)O)c1)C(C)(C)CCC2(C)C` [Compound A45, (E)-3-(5-(3,5,5,8,8-pentamethyl-5,6,7,8-tetrahydronaphthalen-2-yl)pyridin-3-yl)acrylic acid]: 710 nM.
`Cc1cc2c(cc1-c1nc(/C=C/C(=O)O)ccc1C)C(C)(C)CCC2(C)C` [Compound A46, (E)-3-(5-methyl-6-(3,5,5,8,8-pentamethyl-5,6,7,8-tetrahydronaphthalen-2-yl)pyridin-2-yl)acrylic acid] yielded an EC50 of 305 nM. Against the preceding compound, the EC50 is about 2.3-fold lower.
Same read-out and setting: next, `Cc1cc2c(cc1-n1c(C(F)(F)F)nc3cc(C(=O)O)ccc31)C(C)(C)CCC2(C)C` [Compound A48]: 20 nM.
